Read-outs that look alike come from different tables or passages of the source.
Key:
mice [1] = settings: earlier evidence / earlier patents; cited from earlier work
hamsters = settings: given to hamsters, present studies
[2] = test system: GSH diester α-esterase activity, hamster plasma
mice [3] = settings: given to mice, present studies
Human Erythrocytes [4] = settings: for Thiol Levels, Total / Thiol Levels, thiol found GSH / Thiol Levels, thiol found GSH-DE / Thiol Levels, thiol found GSH-ME: erythrocyte suspension, 80 mM thiol added (one-third vol), 37° C.
Description: Analysis of Erythrocyte Thiol by DTNB. Cell supernatant (40 μl) was added to 1 ml of 6 mM DTNB (in 143 mM phosphate buffer, pH 7.5, containing 6.3 mM EDTA). The change in absorbance at 412 nm after 1 min was converted to a value for total thiol using a GSH standard curve. The GSH standard were prepared in a 1:2:2 mixture of PBS: 0.435M acetic acid: 10% SSA (containing 2 mM EDTA) ("RBC Mix").
(§1) Derivatization of Cell Thiols for HPLC Analysis. Derivatization mixtures are as follows: Erythrocyte Lysates: 155 μl 50 mM DTPA (pH 7), 110 μl 3.33% SSA, total 180 μl cell supernatant plus "RBC Mix", 10 μl 0.1M mBBr (in CH3 CN), 100 μl of 2M Tris·HCl (pH 9 at room temperature). The samples were placed in the dark for 20-30 minutes at room temperature; the reaction was quenched with 90 μl of glacial acetic acid. Reduced Erythocyte Lysates. 155 μl mM DTT in 50 mM DTPA (pH 7), SSA, sample, and "RBC Mix" as above Tris was added and the samples were agitated at room temperature for 25 min. 20 μl Tris and 10 μl mBBr were added; the derivatization proceeds as above.
(§2) HPLC Analysis of Cellular Thiols. Samples were chromatographed on an Altex Ultrasphere ODS reverse phase column (5μ; 4.6 mm×25 cm), using one of three gradients: (1) Buffer A: 12.8% MeOH, 0.25% acetic acid, 87.75% H2 O, pH 3.9. (2) Buffer B: 90.0% MeOH, 0.25% acetic acid, 9.75% H2 O (no pH Adjustment). (3) Gradient 1: Initial, 100% A, linear gradient to 50% B at 25 min., linear gradient to 100% B at 35 min., wash with 100% B to 39.5 min.; step to 100% A at 40 min.; equilibration with 100% A to 48 min. Gradient 2: Initial, 100% A, linear gradient to 75% B at 25 min., remainder identical to Gradient 1. Gradient 3: Initial, 100% A, linear gradient to 65% A, 35% B at 25 minutes, remainder identical to gradient 1. Flow rates were 1 ml/min.
Whole blood was collected with EDTA or DTPA (0.5M, pH 7) as anticoagulant (0.4 ml/8-12 ml blood). Plasma and buffy coat were removed after centrifugation and the erythrocytes washed 3 times with 1-2 vol PBS/5 mM DTPA or EDTA. Packed erythrocytes were suspended in one-half vol. PBS. To each suspension was one-third vol. GSH, GSH-ME or GSH-DE (80 mM, pH 7). After incubation at 37° C. for the indicated times, aliquots were removed, washed (3-4×) with PBS/EDTA/DTPA, lysed with one volume 0.435M acetic acid, protein-precipitated with one volume 10% SSA/2 mM DTPA, and centrifuged to remove cell debris. Supernatants were derivatized for HPLC analysis as described in Materials and Methods.

[5] = test system: GSH diester α-esterase activity, sheep plasma
[6] = test system: GSH diester α-esterase activity, guinea pig plasma
[7] = test system: esterase activity, mouse blood plasma
[8] = test system: Human Peripheral Blood Mononuclear Cells; settings: for Thiol Levels, Total / Thiol Levels, thiol found GSH / Thiol Levels, thiol found GSH-DE / Thiol Levels, thiol found GSH-ME: isolated PBM, 0.3 ml 80 mM thiol to 0.9 ml cells, 37° C.
Description: (§3) T Cell and PBM Lysates: 120 μl 4 mM DTPA, total 360 μl sample/4.31% SSA (containing 0.5 mM DTPA), 100 μl Tris, 5μ mBBr; 20 min. in the dark, 15 μl glacial acetic acid.
as §2
PBM were isolated from whole blood (see Tables 1 and 3) washed with PBS, and re-suspended in PBS. To 0.9 ml cell suspension (5-8×10^6 cells) was added 0.3 ml of 80 mM GSH, GSH-ME or GSH-DE at pH 7. After incubation at 37° C. for the indicated times, the cells were recovered by centrifugation, washed with 14 ml PBS (2×), and lysed by addition of 4.31% of SSA/0.5 mM DTPA and 2-3 freeze-thaw cycles. After centrifugation, supernatants were derivatized for HPLC analysis.

[9] = test system: Human Peripheral Blood Mononuclear Cells; settings: 6 ml whole blood + 3 ml 60 mM thiol, 30 min, 37° C.; PBM
Description: as §3, §2
6 mls. whole blood (see Table 1) was mixed with 3 ml of 60 mM GSH, GSH-ME or GSH-DE at pH 7. After 30 min incubation at 37° C., PBM were isolated by Ficoll-Hypaque density gradient centrifugation. Cells were washed with 14 ml PBS (2-3) and lysed with 4.31% SSA/0.5 mM DTPA (400 μl). After centrifugation, the supernatants were derivatized for HPLC analysis.

[10] = test system: GSH diester α-esterase activity, rabbit plasma
[11] = test system: GSH diester α-esterase activity, human blood plasma
Human Erythrocytes [12] = settings: whole blood + one-half volume 120 mM thiol, 30 minutes, 37° C.
Description: as §1, §2
Whole blood (see Table 1) was mixed with one-half volume of 120 mM GSH, GSH-ME, or GSH-DE at pH 7. The samples were incubated for 30 minutes at 37° C. and then centrifuged. After removal of plasma and buffy coat, the erythrocytes were washed and processed as described in Table 1.

[13] = test system: Hamsters (liver, kidney, blood plasma); assay: Thiol levels in hamsters treated with GSH esters; type: in vivo, Syrian hamster
Description: Plasma Samples: 190 μl 50 mM DTPA, total 70 μ1 sample plus 3.33% SSA, 17.5 μl Tris, 10 μl of mBBr; after 20 min in the dark, 7.5 μl glacial acetic acid. Reduced Plasma Samples: 170μ 50 mM DTPA, 20 μl 16 mM DTT in 50 mM DTPA, remainder as above; the samples were agitated at room temperature for 20 min. After reduction, mBBr was added and the derivatization proceeds as above.
Other Animal Tissues. 385 μl 50 mM DTPA, 140 μl sample. 20 μl mBBr, 40 μl Tris; 20 minutes in the dark, 15 μl glacial acetic acid. Standards for all sample types were prepared using identical derivatization procedures.
Recovery of Tissues from Syrian Hamsters. Animals were anesthetized by i.p. administration of xylazine and ketamine, decapitated, and exsanguinated. Blood was mixed with 50 μl EDTA (0.5M, pH 7). Plasma was recovered by centrifugation; one-half vol. 10% SSA/0.5 mM DTPA was added. Liver: one lobe was removed, rinsed with H2 O, blotted, weighed, and homogenized in 5% SSA (0.5 Mm DTPA) (5 vol/g tissue). Kidney: one kidney was removed and decapsulated and then processed as with liver.
BSO (6 mmol/kg) was given I.P. fasted animals 2 hours prior to giving GSH, GSH-ME, or GSH-DE (5 mmol/kg); values were determined 1 hour later. […] Each value represents determinations ±S.D. on 3-4 animals.

[14] = test system: esterase activity, rat blood plasma

COC(=O)CNC(=O)C(CS)NC(=O)CCC(N)C(=O)OC (centres unmarked) [GSH dimethyl ester]
toxicity (mice [1]): may be toxic

CCOC(=O)CNC(=O)[C@H](CS)NC(=O)CC[C@H](N)C(=O)OCC [GSH-DE, glutathione diethyl ester]
toxicity (hamsters): toxicity was not observed | splitting of GSH-DE to GSH-ME in plasma (GSH diester α-esterase activity) [2]: not split to GSH-ME in plasma | splitting of GSH-DE to GSH-ME in plasma (GSH diester α-esterase activity) ([2]; listed as GSH diethyl ester): lacks detectable GSH diester α-esterase activity | toxicity (mice [3]): toxicity was not observed | Thiol Levels, Total (Human Erythrocytes [4]; 7 min): 9.99 ± 2.10 mM | Thiol Levels, thiol found GSH (Human Erythrocytes [4]; 7 min): 1.74 ± 0.22 mM | Thiol Levels, thiol found GSH-DE (Human Erythrocytes [4]; 7 min): 4.19 ± 1.47 mM | Thiol Levels, thiol found GSH-ME (Human Erythrocytes [4]; 7 min): 4.01 ± 0.41 mM | Thiol Levels, Total (Human Erythrocytes [4]; 45 min): 14.5 ± 2.0 mM | Thiol Levels, thiol found GSH (Human Erythrocytes [4]; 45 min): 1.77 ± 0.22 mM | Thiol Levels, thiol found GSH-DE (Human Erythrocytes [4]; 45 min): 3.61 ± 1.29 mM | Thiol Levels, thiol found GSH-ME (Human Erythrocytes [4]; 45 min): 9.15 ± 0.49 mM | Thiol Levels, Total (Human Erythrocytes [4]; 90 min): 20.1 ± 2.8 mM | Thiol Levels, thiol found GSH (Human Erythrocytes [4]; 90 min): 2.02 ± 0.30 mM | Thiol Levels, thiol found GSH-DE (Human Erythrocytes [4]; 90 min): 3.51 ± 1.28 mM | Thiol Levels, thiol found GSH-ME (Human Erythrocytes [4]; 90 min): 14.6 ± 1.2 mM | total RBC thiol levels (Human Erythrocytes [4]; summary of Table 1): about 20 mM | GSH diester α-esterase activity in plasma [5]: also lack this esterase | GSH diester α-esterase activity in plasma [6]: also lack this esterase | conversion of GSH diethyl ester to GSH mono (glycyl) ester in blood plasma [7]: split rapidly to GSH-ME | conversion of GSH diethyl ester to GSH mono (glycyl) ester in blood plasma ([7]; listed as GSH diethyl ester): rapidly converted to GSH mono (glycyl) ester | total thiols in human PBM ([8]; in 90 min, text summary of Table 4): 33 mM | Thiol Levels, Total ([8]; 7 min, donor A): 12.1 ± 1.3 nmol/10^6 cells | Thiol Levels, thiol found GSH ([8]; 7 min, donor A): 3.64 ± 0.32 nmol/10^6 cells | Thiol Levels, thiol found GSH-DE ([8]; 7 min, donor A): 0.65 ± 0.016 nmol/10^6 cells | Thiol Levels, thiol found GSH-ME ([8]; 7 min, donor A): 8.34 ± 0.95 nmol/10^6 cells | Thiol Levels, Total ([8]; 45 min, donor B): 17.2 ± 1.4 nmol/10^6 cells | Thiol Levels, thiol found GSH ([8]; 45 min, donor B): 2.82 ± 0.25 nmol/10^6 cells | Thiol Levels, thiol found GSH-DE ([8]; 45 min, donor B): 0.320 ± 0.101 nmol/10^6 cells | Thiol Levels, thiol found GSH-ME ([8]; 45 min, donor B): 14.1 ± 1.0 nmol/10^6 cells | Thiol Levels, Total ([8]; 90 min, donor A): 33.2 ± 6.3 nmol/10^6 cells | Thiol Levels, thiol found GSH ([8]; 90 min, donor A): 5.58 ± 1.05 nmol/10^6 cells | Thiol Levels, thiol found GSH-DE ([8]; 90 min, donor A): 0.750 ± 0.141 nmol/10^6 cells | Thiol Levels, thiol found GSH-ME ([8]; 90 min, donor A): 26.9 ± 5.1 nmol/10^6 cells | Thiol Levels Found, GSH [9]: 4.24 nmol/10^6 cells | Thiol Levels Found, GSH-DE [9]: 0.501 nmol/10^6 cells | Thiol Levels Found, GSH-ME [9]: 10.5 nmol/10^6 cells | Thiol Levels Found, Total [9]: 15.2 nmol/10^6 cells | GSH diester α-esterase activity in plasma [10]: also lack this esterase | splitting of GSH-DE to GSH-ME in plasma (GSH diester α-esterase activity) [11]: not split to GSH-ME in plasma | splitting of GSH-DE to GSH-ME in plasma (GSH diester α-esterase activity) ([11]; listed as GSH diethyl ester): does not have detectable GSH diester α-esterase activity | Thiol Levels Found, GSH (Human Erythrocytes [12]): 2.24 ± 0.45 mM | Thiol Levels Found, GSH-DE (Human Erythrocytes [12]): 8.61 ± 0.31 mM | Thiol Levels Found, GSH-ME (Human Erythrocytes [12]): 6.26 ± 0.50 mM | Thiol Levels Found, Total (Human Erythrocytes [12]): 17.1 ± 1.24 mM | raising GSH levels in liver ([13]; hamster, comparison in words (Table 6)): more effective than GSH-ME | Blood plasma levels of GSH ([13]; hamsters, 5 mmol/kg after BSO, 1 hour later): not affected | conversion of GSH diethyl ester to GSH mono (glycyl) ester in blood plasma [14]: split rapidly to GSH-ME | conversion of GSH diethyl ester to GSH mono (glycyl) ester in blood plasma ([14]; listed as GSH diethyl ester): rapidly converted to GSH mono (glycyl) ester

Reference: US5869456A, “Use of glutathione diesters” (priority 1995, dated 1999)
